Source: the supplement of paper PMC8617591

Assays:
[1] = test system: Mycobacterium tuberculosis Erdman (autoluminescent); assay: total FIC50 (Loewe) at 50% inhibition, three-drug combination (log2); higher = more antagonistic
Method: (§1)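 DiaMOND equipotent three-drug combination dose responses (10 doses, 1.5- or 2-fold spacing, centred on IC90) against autoluminescent M. tuberculosis Erdman in 8 in vitro models. Read-out is OD600, or luminescence for the intracellular and dormancy models, normalised to untreated wells. Hill-fit Einf, AUC25 and GRinf are potency metrics; FIC50 and FIC90 are total Loewe fractional inhibitory concentrations as log2 (negative = synergy).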

[2] = test system: Mycobacterium tuberculosis Erdman (autoluminescent); assay: Einf, fitted maximum growth inhibition of three-drug combination (fraction); higher = stronger maximal inhibition
Method: as §1

[3] = test system: Mycobacterium tuberculosis Erdman (autoluminescent); assay: GRinf, maximum normalised growth rate inhibition (three-drug combination) (unitless (-1 to 1)); higher = less effect (negative = killing)
Method: as §1

[4] = test system: Mycobacterium tuberculosis Erdman (autoluminescent); assay: AUC25, normalised area under dose response up to IC25 (three-drug combination) (fraction (0-1)); higher = more potent at low dose
Method: as §1

[5] = test system: Mycobacterium tuberculosis Erdman (autoluminescent); assay: total FIC90 (Loewe) at 90% inhibition, three-drug combination (log2); higher = more antagonistic
Method: as §1

CC(=O)NC[C@H]1CN(c2ccc(N3CCOCC3)c(F)c2)C(=O)O1 [linezolid] + COc1c(N2C[C@@H]3CCCN[C@@H]3C2)c(F)cc2c(=O)c(C(=O)O)cn(C3CC3)c12 [moxifloxacin] + NC(=O)c1cnccn1 [pyrazinamide]
Conditions	AUC25, [4]	Einf, [2]	GRinf, [3]	total FIC50, [1]	total FIC90, [5]
in vitro model: acidic pH 5.7, time point: constant (~7 days, model-specific)	0.0593	0.734	-0.345	-0.252	–
in vitro model: acidic pH 5.7, time point: terminal (~4-5 doublings, model-specific)	0.0649	0.955	-0.38	1.52	-0.8
in vitro model: intracellular J774, time point: constant = terminal	–	0.939	-0.17	–	0.559

Conditions	AUC25, [4]	Einf, [2]	GRinf, [3]	total FIC50, [1]	total FIC90, [5]
in vitro model: butyrate, time point: constant (~7 days, model-specific)	0.108	0.891	0.0582	0.00706	2.34
in vitro model: butyrate, time point: terminal (~4-5 doublings, model-specific)	0.0904	0.952	0.0307	0.0931	0.745
in vitro model: cholesterol 0.05 mM, time point: constant (~7 days, model-specific)	0.145	0.704	-0.234	–	–
in vitro model: cholesterol 0.05 mM, time point: terminal (~4-5 doublings, model-specific)	0.147	0.932	-0.426	0.356	–
in vitro model: cholesterol-high 0.2 mM, time point: constant (~7 days, model-specific)	0.106	0.923	-0.819	0.486	–
in vitro model: cholesterol-high 0.2 mM, time point: terminal (~4-5 doublings, model-specific)	0.115	1	-1	0.334	0.717
in vitro model: dormancy (butyrate + nitrate, low O2), time point: constant (~7 days, model-specific)	0.0721	0.855	0.269	0.651	0.461
in vitro model: dormancy (butyrate + nitrate, low O2), time point: terminal (~4-5 doublings, model-specific)	0.0321	0.973	-0.0525	0.786	0.354
in vitro model: standard 7H9 glycerol, time point: constant = terminal	0.0843	0.962	-0.271	–	–
in vitro model: valerate, time point: constant (~7 days, model-specific)	0.0976	0.87	0.12	-0.0785	–
in vitro model: valerate, time point: terminal (~4-5 doublings, model-specific)	0.0603	0.921	0.0594	0.266	0.56

CC(=O)NC[C@H]1CN(c2ccc(N3CCOCC3)c(F)c2)C(=O)O1 [linezolid] + NC(=O)c1cnccn1 [pyrazinamide] + CO[C@H]1/C=C/O[C@@]2(C)Oc3c(C)c(O)c4c(O)c(c(/C=N/N5CCN(C)CC5)c(O)c4c3C2=O)NC(=O)/C(C)=C\C=C\[C@H](C)[C@H](O)[C@@H](C)[C@@H](O)[C@@H](C)[C@H](OC(C)=O)[C@@H]1C [rifampicin]
Conditions	AUC25, [4]	Einf, [2]	GRinf, [3]	total FIC50, [1]	total FIC90, [5]
in vitro model: acidic pH 5.7, time point: constant (~7 days, model-specific)	0.0897	0.883	-0.255	0.175	–
in vitro model: acidic pH 5.7, time point: terminal (~4-5 doublings, model-specific)	0.0731	0.986	-0.249	0.189	–
in vitro model: intracellular J774, time point: constant = terminal	–	0.953	-0.411	–	-0.0717

Conditions	AUC25, [4]	Einf, [2]	GRinf, [3]	total FIC50, [1]	total FIC90, [5]
in vitro model: butyrate, time point: constant (~7 days, model-specific)	0.0912	0.889	0.0887	-0.0235	0.328
in vitro model: butyrate, time point: terminal (~4-5 doublings, model-specific)	0.075	0.94	0.0909	-0.114	-0.413
in vitro model: cholesterol 0.05 mM, time point: constant (~7 days, model-specific)	0.141	0.702	-0.117	–	–
in vitro model: cholesterol 0.05 mM, time point: terminal (~4-5 doublings, model-specific)	0.127	0.929	-0.289	0.713	–
in vitro model: cholesterol-high 0.2 mM, time point: constant (~7 days, model-specific)	0.116	0.926	-0.72	0.321	–
in vitro model: cholesterol-high 0.2 mM, time point: terminal (~4-5 doublings, model-specific)	0.104	0.995	-0.826	0.598	0.554
in vitro model: dormancy (butyrate + nitrate, low O2), time point: constant (~7 days, model-specific)	0.0758	0.893	0.203	0.486	0.378
in vitro model: dormancy (butyrate + nitrate, low O2), time point: terminal (~4-5 doublings, model-specific)	0.0314	0.972	-0.277	0.208	-0.126
in vitro model: standard 7H9 glycerol, time point: constant = terminal	0.0779	0.908	0.119	-0.168	–
in vitro model: valerate, time point: constant (~7 days, model-specific)	0.0571	0.853	0.1	0.122	–
in vitro model: valerate, time point: terminal (~4-5 doublings, model-specific)	0.0305	0.925	0.0656	0.211	-0.35

CC(C)/N=c1\cc2n(-c3ccc(Cl)cc3)c3ccccc3nc-2cc1Nc1ccc(Cl)cc1 [clofazimine] + NNC(=O)c1ccncc1 [isoniazid] + NC(=O)c1cnccn1 [pyrazinamide]
Conditions	AUC25, [4]	Einf, [2]	GRinf, [3]	total FIC50, [1]	total FIC90, [5]
in vitro model: acidic pH 5.7, time point: constant (~7 days, model-specific)	0.105	0.819	-0.294	0.25	–
in vitro model: acidic pH 5.7, time point: terminal (~4-5 doublings, model-specific)	0.0972	0.977	-0.35	-0.0265	-0.409
in vitro model: intracellular J774, time point: constant = terminal	–	0.964	-0.705	–	0.267

Conditions	AUC25, [4]	Einf, [2]	GRinf, [3]	total FIC50, [1]	total FIC90, [5]
in vitro model: butyrate, time point: constant (~7 days, model-specific)	0.112	0.953	-0.112	-0.201	0.915
in vitro model: butyrate, time point: terminal (~4-5 doublings, model-specific)	0.0804	0.968	-0.0686	-0.0738	0.168
in vitro model: cholesterol 0.05 mM, time point: constant (~7 days, model-specific)	0.131	0.74	-0.217	–	–
in vitro model: cholesterol 0.05 mM, time point: terminal (~4-5 doublings, model-specific)	0.132	0.924	-0.252	0.486	–
in vitro model: cholesterol-high 0.2 mM, time point: constant (~7 days, model-specific)	0.0931	0.938	-0.335	0.341	–
in vitro model: cholesterol-high 0.2 mM, time point: terminal (~4-5 doublings, model-specific)	0.0853	0.997	-0.517	0.634	0.384
in vitro model: dormancy (butyrate + nitrate, low O2), time point: constant (~7 days, model-specific)	0.0828	0.88	0.259	-0.675	-0.607
in vitro model: dormancy (butyrate + nitrate, low O2), time point: terminal (~4-5 doublings, model-specific)	0.0727	0.986	-0.174	-0.286	0.161
in vitro model: standard 7H9 glycerol, time point: constant = terminal	0.114	0.942	-0.135	0.447	–
in vitro model: valerate, time point: constant (~7 days, model-specific)	0.119	0.86	0.022	-0.0616	–
in vitro model: valerate, time point: terminal (~4-5 doublings, model-specific)	0.0674	0.933	0.0539	0.187	0.474
